Laboratory results: US4570013A, “Biphenylylalkanoic acid derivatives, methods of preparation and pharmaceutical compositions therefrom” (Dr. L. Zambeletti S.p.A., priority 1983, dated 1986)
Where two headings read alike, the source gives them in different places.

Assays:
[1] = system: writhings caused by 2-phenylparabenzoquinone in mice; experiment: writhing test (method of Siegmund), 2-phenylparabenzoquinone, analgesic activity; assay type: in vivo, Swiss mice; settings: for Contorsions % (change vs controls) / No. Contorsions: orally at ED50: biphenylylacetic acid 12, Ia 32 mg/kg; for ED50: Mus musculus, po
From the text: The analgesic activity has been studied according to the method described by Siegmund (E. Siegmund et al, Proc. Soc. Exptl. Biol. Med., 95, 729 (1957)), according to which the algogenic stimulus consists of the intraperitoneal injection of 2-phenylparabenzoquinone and the algesia manifests itself in repeated abdominal contractions with an extension of the rear limbs and contorsions of the body ("writhing test").

[2] = system: oedema induced in the rats' paw by intradermic injection of carrageenin; experiment: carrageenin-induced paw oedema (method of Winter), antiinflammatory activity; assay type: in vivo; settings: Rattus norvegicus, po, os, read-out: Antiinflammatory activity (oedema caused by carrageenin in rats) ED50
[3] = system: Hyperthermia caused by brewer's yeast in rats; experiment: brewer's yeast hyperthermia (method of C. Winter), antipyretic activity; assay type: in vivo; settings: for ED50: Rattus norvegicus, po, rats, os, read-out: Antipyretic activity (temperature increase by brewer's yeast, in rats) ED50
From the text: The antipyretic activity has been studied according to the method of C. Winter, Toxicol. and Appl. Pharmacol., 5, 247 (1963), in rats, by determining the ability of the substance to reduce the increase of body temperature caused by the subcutaneous administration of brewer's yeast.

in vivo = settings: rat, po
[4] = gastrolesive action after single doses; settings: rat, in vivo, po
[5] = read-out: Analgesic activity (against pain caused by 2-phenyl-p-benzo-quinone in mice) ED50

## O=C(O)Cc1ccc(-c2ccccc2)cc1 [reference compound]
[1]; 5 minutes
  Contorsions % (change vs controls): -27%
  No. Contorsions: 33.4 ± 3.0
[1]; 15 minutes
  Contorsions % (change vs controls): -41%
  No. Contorsions: 31.0 ± 4.7
[1]; 30 minutes
  Contorsions % (change vs controls): -57%
  No. Contorsions: 21.3 ± 2.6
[1]; 1 hour
  Contorsions % (change vs controls): -49%
  No. Contorsions: 25.6 ± 2.9
[1]; 2 hours
  Contorsions % (change vs controls): -42%
  No. Contorsions: 25.1 ± 2.8
[1]; 3 hours
  Contorsions % (change vs controls): -47%
  No. Contorsions: 26.0 ± 4.0
[1]; 4 hours
  Contorsions % (change vs controls): -28%
  No. Contorsions: 34.9 ± 3.6
[1]; 5 hours
  Contorsions % (change vs controls): -1%
  No. Contorsions: 45.0 ± 2.3
[1]; mice, orally, read-out: ED50, analgesic activity (writhing test)
  ED50: 12 mg/kg
[2]
  ED50: 10.9 mg/kg
[3]; 3 mg/kg os, 1 h
  Temperature change Δt after administration of the substance: -0.48 °C
[3]; 3 mg/kg os, 2 h
  Temperature after administration of the substance, t: 37.81±0.05 °C
  Temperature change Δt after administration of the substance: -0.65 °C
[3]; 3 mg/kg os, 3 h
  P/S, ratio of protected animals with respect to total screened animals: 2/10
  Temperature after administration of the substance, t: 37.69±0.08 °C
  Temperature change Δt after administration of the substance: -0.70 °C
[3]; 3 mg/kg os, 4 h
  Temperature after administration of the substance, t: 37.89±0.08 °C
  Temperature change Δt after administration of the substance: -0.41 °C
[3]; 3 mg/kg os, 5 h
  Temperature after administration of the substance, t: 38.12±0.13 °C
  Temperature change Δt after administration of the substance: -0.14 °C
[3]; 3 mg/kg os, 6 h
  Temperature after administration of the substance, t: 38.19±0.11 °C
  Temperature change Δt after administration of the substance: -0.05 °C
[3]; 6 mg/kg os, 1 h
  Temperature after administration of the substance, t: 37.80±0.09 °C
  Temperature change Δt after administration of the substance: -0.84 °C
[3]; 6 mg/kg os, 2 h
  Temperature after administration of the substance, t: 37.46±0.09 °C
  Temperature change Δt after administration of the substance: -1.00 °C
[3]; 6 mg/kg os, 3 h
  P/S, ratio of protected animals with respect to total screened animals: 5/10
  Temperature after administration of the substance, t: 37.28±0.07 °C
  Temperature change Δt after administration of the substance: -1.11 °C
[3]; 6 mg/kg os, 4 h
  Temperature after administration of the substance, t: 37.40±0.09 °C
  Temperature change Δt after administration of the substance: -0.90 °C
[3]; 6 mg/kg os, 5 h
  Temperature after administration of the substance, t: 37.65±0.10 °C
  Temperature change Δt after administration of the substance: -0.63 °C
[3]; 6 mg/kg os, 6 h
  Temperature after administration of the substance, t: 37.81±0.12 °C
  Temperature change Δt after administration of the substance: -0.37 °C
[3]; 12 mg/kg os, 1 h
  Temperature after administration of the substance, t: 37.71±0.08 °C
  Temperature change Δt after administration of the substance: -0.93 °C
[3]; 12 mg/kg os, 2 h
  Temperature after administration of the substance, t: 37.33±0.06 °C
  Temperature change Δt after administration of the substance: -1.13 °C
[3]; 12 mg/kg os, 3 h
  P/S, ratio of protected animals with respect to total screened animals: 8/10
  Temperature after administration of the substance, t: 37.09±0.07 °C
  Temperature change Δt after administration of the substance: -1.30 °C
[3]; 12 mg/kg os, 4 h
  Temperature after administration of the substance, t: 37.18±0.07 °C
  Temperature change Δt after administration of the substance: -1.12 °C
[3]; 12 mg/kg os, 5 h
  Temperature after administration of the substance, t: 37.43±0.08 °C
  Temperature change Δt after administration of the substance: -0.93 °C
[3]; 12 mg/kg os, 6 h
  Temperature after administration of the substance, t: 37.58 °C
  Temperature change Δt after administration of the substance: -0.66 °C
[3]
  ED50: 6 mg/kg
In vivo
  TD50: 16.5 mg/kg

## COc1ccc2cc(C(C)C(=O)O)ccc2c1 (stereo not drawn) [Naproxen, 6-methoxy-α-methyl-2-naphthaleneacetic acid, reference compound]
[1]; [5]
  ED50: 20 mg/kg
[4]
  TD50: 17 mg/kg
[2]
  ED50: 24 mg/kg
[3]
  ED50: 112 mg/kg

## O=C(Cc1ccc(-c2ccccc2)cc1)Nc1ccccn1 [Diphenpyramide, N-2-pyridinyl-(1,1'-biphenyl)-4-acetamide]
[1]; [5]
  ED50: 97 mg/kg
[2]
  ED50: 19.9 mg/kg
[3]
  ED50: 22.5 mg/kg
In vivo
  TD50: 76 mg/kg
